Where a SMILES comes first, the peptide text is derived from it. The star is where a group is joined. Cbz = O=C(OCc1ccccc1)*; CH2F = FC*
Columns and labels:
[1] = system: peripheral blood mononuclear cells (PBMC), T cells; assay: ELISpot assay, IL-5 release (SFC) after stimulation with a-synuclein epitope pools; format: cell-based, human; details: for IL-g Peptide + (donors positive to the peptide): of donors tested (peptide); for IL-g Peptide +: number of donors positive to the single peptide
In short: (§1)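 Samples came from 44 PD patients and 24 matched controls, tested blindly. Their PBMC were stimulated for 22 hours at 37 C with α-synuclein peptide pools, and pools that responded were resolved into individual epitopes.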

[2] = system: peripheral blood mononuclear cells (PBMC), T cells; assay: ELISpot assay, IFNg and IL-5 reactivity combined, T cell response to α-syn epitopes; format: cell-based, human; details: flag 1/0 per peptide
Procedure: Blood from age matched controls and PD patients were obtained and mononuclear cells were isolated by gradient centrifugation.
Release of the cytokines gamma-interferon, which measures activation of CD4+ and/or CD8+ T cells, and the interleukin, IL-5, which measures activation of CD4+ T cells was measured by ELISpot assay. […] After 22 hours of stimulation at 37 C, the cells were removed and release of cytokines was measured by colorimetric detection of spot-forming cells (SFC). Confirmed release of cytokine is determined by the presence of a minimum of 20 SFC per million cells.
The binding algorithms in SubAim 1 predict how well the peptides would bind to MHC if present, but not if they are present in patients. To determine this, the presence of T cell response against the candidate antigens by patient blood-derived peripheral blood mononuclear cells (PBMC) is assessed by ELISPOT assays upon stimulation with the peptides. This assay detects and quantifies cytokine release (in this case, IFNγ and IL-5) from specific activated T cells.
Data were obtained from blood samples (25 ml) from 44 PD patients and 24 age-matched controls. The experiments were conducted blindly. PBMCs from these samples were isolated and exposed to pools comprising the 122 candidate class I and class II antigens and phosphorylated S129 epitopes generated in Subaim 1. For the PBMCs responsive to the pooled peptides, the response was then deconvoluted to identify individual epitopes.
PMBC fractions are recovered by standard methods with Ficoll gradient and T cells expansion (Oseroff et al., 2010). The methods for the analysis of T cell reactions and measurement of cytokines production using the enzyme-linked immunosorbent spot (ELISPOT) assay are published in analogous experiments to discover antigens in multiple sclerosis (Lolli et al., 2013) and in hay fever allergens (Oseroff et al., 2010). T cell responses are determined by measuring IFNγ and IL-5 release by ELISPOT. Statistical analysis of differences between populations is expected to be non-parametric and analyzed with the U-Mann-Whitney test. If there were a normal distribution of response, which is a priori unlikely as some patients have no T cell response, with an SD=1, 8 patients per group would be required to provide a p>90% that the study detect a >2 fold difference at a two-sided 0.05 significance level.

[3] = system: peripheral blood mononuclear cells (PBMC), T cells; assay: ELISpot assay, gamma-interferon release (SFC) after stimulation with a-synuclein epitope pools; format: cell-based, human; details: for IFNg Peptide + (donors positive to the peptide): of donors tested (peptide); for IFNg Peptide +: number of donors positive to the single peptide
In short: as §1

[4] = system: SN murine neuronal cultures; assay: NM and MHC-I induction by L-DOPA in SN neuronal cultures; format: cell-based, mouse
From the text: To enhance cytosolic DA, the DA precursor, L-DOPA, was used, which is accumulated by amino acid transport and converted into DA in the cytosol. Exposure to high levels of L-DOPA can produce NM in both catecholaminergic and nominally non-catecholaminergic cells (Sulzer et al., 2000). […] SN murine neuronal cultures were exposed to L-DOPA under conditions that substantially increase cytosolic DA as measured by intracellular patch electrochemistry (Mosharov et al., 2009) and promote NM production as observed by brightfield microscopy (Sulzer et al., 2000).
IFN-γ (R&D Systems) was used at a range of non-toxic concentrations for neurons or OT-1 cells (10 μg/ml-100 ng/ml, 72h). 12-well cell culture plates were pre-treated with LPS (500 ng/ml, Sigma-Aldrich), NM (5 μg/ml), α-syn, Nit-α-syn or Mut-α-syn (200 μg/ml, kindly provided by Peter Lansbury, Harvard University) for 72 h before plating 45,000-50,000 microglial cells/well for an additional 24h. A neutralizing IFN-γ antibody (1:500, PBL InterferonSource) was used to block IFN-γ released from microglia. VM neurons were incubated for 72 h with microglial medium pre-stimulated by LPS, NM, α-syn, Nit-α-syn or Mut-α-syn. As a control experiment, we directly incubated VM neurons with the same compounds in the absence of microglia. In another set of experiments, VM, cortical and striatal primary neurons were incubated for 72 h with microglial medium pre-stimulated by LPS, NM, α-syn. NM was induced in SN cultured neurons by using L-DOPA (Sulzer et al., 2000) (Sigma Aldrich). […]
Images were captured using a Leica SP5 microscope system. There was no fluorescence bleed-through of secondary antibodies under the conditions used. […]
In order to assess the proportion of TH^+ and MAP-2^+ neurons that expressed MHC-I^+, first TH^+ and MAP-2^+ neurons were counted in 24 fields surrounding the border of the well at 20× magnification. The number of TH^+ or MAP-2^+ neurons with intact soma and two or more neurites equal to or greater than the diameter of the cell soma was counted. […]

[5] = system: VM DA (TH+) neurons; assay: OT-1 T cell cytotoxicity (killing) assay on VM DA neurons; format: cell-based, mouse; details: for effect on CTL mediated neuronal death: neurons with IFN-γ, SIINFEKL and OT-1 cells
Procedure: OT-1 CD8^+ cell proliferation was assessed by BrdU incorporation. For OT-1 T cell cytotoxicity assays, DC and VM (from C57BL/6 and 56.129P2-B2mtm1Unc/J mice) cell cultures were incubated with neuronal medium or neuronal medium containing 100 ng/ml of IFN-γ (R&D Systems). Neurons were loaded with or without […] (SEQ ID NO: 9) peptide (1 μM), and, subsequently in vitro activated OT-1 cells were added at a density of 100,000 cells/well and co-incubated for 24 h.
We used the same conditions for VM cell cultures with microglial medium previously stimulated with LPS, NM or α-syn instead of IFN-γ. Neurons were pre-incubated with IFN-γ and […] (SEQ ID NO: 9) peptide as above, and then with: 1) a pan-caspase general inhibitor (Z-VAD-FMK, 20 μM, 24h, IMGENEX); 2) a specific granzyme/perforin inhibitor (concanamycin A, 100 nM, 24h, Sigma Aldrich); 3) a specific Fas/FasL antagonist (Kp7-6, 1 mM, 24h, EMD Biosciences) and 4) concanamycin A and Kp7-6 together. OT-1 cells were then added to the culture (100,000 cells/well) and maintained for 24 h.
Following immunocytochemical staining of VM neurons, we assessed the proportion of surviving DA (TH^+) and non-DA cells (MAP-2^+, TH^−). Total numbers of TH^+ and MAP-2^+ neurons were counted in 24 fields surrounding the border of the well at 20× magnification. The number of surviving TH+ neurons with an intact soma and two or more neurites equal to or greater than the diameter of the cell soma was counted and normalized to the number in untreated cultures.

[6] = system: primary VM neurons; assay: MHC-I expression of VM neurons after microglial conditioned medium; format: cell-based, mouse
Procedure: IFN-γ (R&D Systems) was used at a range of non-toxic concentrations for neurons or OT-1 cells (10 μg/ml-100 ng/ml, 72h). 12-well cell culture plates were pre-treated with LPS (500 ng/ml, Sigma-Aldrich), NM (5 μg/ml), α-syn, Nit-α-syn or Mut-α-syn (200 μg/ml, kindly provided by Peter Lansbury, Harvard University) for 72 h before plating 45,000-50,000 microglial cells/well for an additional 24h. A neutralizing IFN-γ antibody (1:500, PBL InterferonSource) was used to block IFN-γ released from microglia. VM neurons were incubated for 72 h with microglial medium pre-stimulated by LPS, NM, α-syn, Nit-α-syn or Mut-α-syn. As a control experiment, we directly incubated VM neurons with the same compounds in the absence of microglia. In another set of experiments, VM, cortical and striatal primary neurons were incubated for 72 h with microglial medium pre-stimulated by LPS, NM, α-syn. NM was induced in SN cultured neurons by using L-DOPA (Sulzer et al., 2000) (Sigma Aldrich). For foreign protein processing and subsequent antigen presentation, VM cultures were maintained for 7 days in either 1) BSA/serum-free neuronal medium, 2) BSA/serum-free supplemented with OVA (2.5 mg/ml), adding IFN-γ (100 ng/ml) or saline for an additional 72h.
Images were captured using a Leica SP5 microscope system. There was no fluorescence bleed-through of secondary antibodies under the conditions used. MHC-I label observed in the neuronal cultures obtained from wild type mice was absent in neurons from β2m KO mice (FIG. 3A).
In order to assess the proportion of TH^+ and MAP-2^+ neurons that expressed MHC-I^+, first TH^+ and MAP-2^+ neurons were counted in 24 fields surrounding the border of the well at 20× magnification. The number of TH^+ or MAP-2^+ neurons with intact soma and two or more neurites equal to or greater than the diameter of the cell soma was counted. Then, the fluorescent filter was inserted for each field to determine how many of these neurons also expressed MHC-I.

[7] = Patients Summary, PD patients, single peptide
[8] = second 'Pool Stimulated' section (from r296), 12 donors tested
[9] = peptide + / donors tested (peptide), second 'Pool Stimulated' section (from r296), 12 donors tested
[10] = single peptide, second 'Pool Stimulated' section (from r296), 12 donors tested

Compound	IL-g Peptide + (donors positive to the peptide) ([1]; Patients Summary, PD patients)	IL-g Response Frequency [1, 7]	IL-g Total SFC [1, 7]	IL-g Peptide + [1, 8]	IL-g Response Frequency [1, 9]	IL-g Total SFC [1, 10]	Peptides + in Patients & Normals [2]	IFNg Peptide + (donors positive to the peptide) ([3]; Patients Summary, PD patients)	IFNg Response Frequency [3, 7]	IFNg Total SFC [3, 7]	IFNg Peptide + [3, 8]	IFNg Response Frequency [3, 9]	IFNg Total SFC [3, 10]	other results
3521.0043 (VFMKGLSKAK; listed as Homo sapiens)	1	33%	191 SFC	1	100%	93.3 SFC	1	0	0%	0 SFC	1	100%	66.7 SFC	IL-g Avg SFC [1, 7]: 191 SFC; IL-g Avg SFC [1, 10]: 93.3 SFC; IFNg Avg SFC [3, 10]: 66.7 SFC
3521.0046 (FMKGLSKAKE; listed as Homo sapiens)	0	0%	0 SFC	0	0%	0 SFC	0	0	0%	0 SFC	0	0%	0 SFC	
3521.0052 (KTKQGVAEAA; listed as Homo sapiens)	0	0%	0 SFC	0	0%	0 SFC	0	0	0%	0 SFC	0	0%	0 SFC	
3521.0053 (KAKEGVVAAA; listed as Homo sapiens)	0	0%	0 SFC	0	0%	0 SFC	0	0	0%	0 SFC	0	0%	0 SFC	
3521.0066 (KAKEGVVAA; listed as Homo sapiens)	0	0%	0 SFC	0	0%	0 SFC	0	0	0%	0 SFC	0	0%	0 SFC	
3521.0074 (VAAAEKTKQGVAEAP; listed as Homo sapiens)	0	0%	0 SFC	0	0%	0 SFC	0	1	33%	67 SFC	0	0%	0 SFC	IFNg Avg SFC [3, 7]: 67 SFC
N[C@@H](Cc1ccc(O)c(O)c1)C(=O)O [L-DOPA, L-dihydroxyphenylalanine]														neurons in which NM was induced [4]: 40%; TH+ neurons with MHC-I display ([4]; TH+ neurons): ~10%; TH− neurons with MHC-I display ([4]; TH− neurons): ~7%
COC(=O)C[C@H](NC(=O)[C@H](C)NC(=O)[C@@H](NC(=O)OCc1ccccc1)C(C)C)C(=O)CF [Z-VAD-FMK] (Cbz-Val-Ala-Asp(OMe)-CH2F)														effect on CTL mediated neuronal death [5]: protect against CTL mediated neuronal death
C/C=C/[C@H]1O[C@@](O)([C@@H](C)[C@H](O)[C@H](C)[C@H]2OC(=O)/C(OC)=C/C(C)=C/[C@@H](C)[C@@H](O)[C@@H](CC)[C@@H](O)[C@H](C)C/C(C)=C/C=C/[C@@H]2OC)C[C@@H](O[C@H]2C[C@@H](O)[C@H](OC(N)=O)[C@@H](C)O2)[C@@H]1C [concanamycin A]														effect on CTL mediated neuronal death [5]: protect against CTL mediated neuronal death
α-syn: alpha synuclein protein, wild type														cell surface MHC-I presentation by VM neurons ([6]; conditioned medium from microglia incubated 72 hours with the substance): elicited cell surface MHC-I presentation; induction of neuronal MHC-I ([6]; cultures directly exposed, absence of microglial cells): no induction; neuronal death ([5]; SIINFEKL, CTLs and medium conditioned by microglia exposed to the substance): caused extensive neuronal death

From patent US20170184612A1, “USE OF LEUKOCYTES AND NOVEL BIOMARKERS IN THE DIAGNOSIS, CONFIRMATION, AND TREATMENT OF A NEUROLOGICAL DISORDER” (The Trustees of Columbia University in the City of New York, priority 2014, published 2017)
